We go through two compounds from patent EP0796866A1, “Antithrombotic diamides” (ELI LILLY AND COMPANY, priority 1996, dated 1997).

Where a name gives a salt, the structure may show the parent alone.

Holding throughout (format): biochemical
For one experiment, the target named is T1, human thrombin (Homo sapiens, UniProt P00734).
T1 construct: purified human thrombin; purchased Enzyme Research Laboratories, South Bend, Indiana
Nature of the experiment: inhibition of the amidase activity of thrombin (chromogenic substrate), Kass. Conditions: hypothetical equilibrium (association) constant thrombin + test compound; mean over a range of concentrations; pH 7.4. As to the method:
The assay is carried out by mixing 50 µl buffer (0.03M Tris, 0.15M NaCl, pH 7.4) with 25 µl of human thrombin solution (purified human thrombin, Enzyme Research Laboratories, South Bend, Indiana, at 8 NIH units/ml) and 25 µl of test compound in a solvent (50% aqueous methanol (v:v)). Then 150 µl of an aqueous solution of the chromogenic substate (at 0.25 mg/ml) are added and the rates of hydrolysis of the substrate are measured by monitoring the reactions at 405 nm for the release of p-nitroaniline. Standard curves are constructed by plotting free thrombin concentration against hydrolysis rate. The hydrolysis rates observed with test compounds are then converted to "free thrombin" values in the respective assays by use of the standard curves. The bound thrombin (bound to test compound) is calculated by subtracting the amount of free thrombin observed in each assay from the known initial amount of thrombin used in the assay. The amount of free inhibitor in each assay is calculated by subtracting the number of moles of bound thrombin from the number of moles of added inhibitor (test compound). […]
Kass is calculated for a range of concentrations of test compounds and the mean value reported in units of liter per mole. […] For example, each of the particularly preferred examples of the invention listed above was determined to have a Kass of at least 5 X 10^6 L/mole.

Experiment [1] has as its system human or animal plasma. The experiment can be described thus: thrombin time (TT) coagulation assay in plasma. The following applies: concentration required to double the clotting time, linear extrapolation; thrombin 10 NIH units/ml. As to the method:
(§1) Dog plasma and rat plasma are obtained from conscious mixed-breed hounds (either sex, hazelton-LRE, Kalamazoo, Michigan, U.S.A.) or from anesthetized male Sprague-Dawley rats (Harlan Sprague-Dawley, Inc., Indianapolis, Indiana, U.S.A.) by venipuncture into 3.8 percent citrate. Fibrinogen is prepared from in-date ACD human blood as the fraction I-2 according to previous procedures and specifications. Smith, Biochem. J., 185, 1-11 (1980); and Smith, et al., Biochemistry, 11, 2958-2967 (1972). Human fibrinogen is also purchased as 98 percent pure/plasmin free from American Diagnostica, Greenwich, Connecticut. Coagulation reagents ACTIN, Thromboplastin, and Human plasma are from Baxter Healthcare Corp., Dade Division, Miami, Florida. […]
(§2) Coagulation assay procedures are as previously described. […] The thrombin time (TT) is measured by adding 0.05 ml saline and 0.05 ml thrombin (10 NIH units/ml) to 0.05 ml test plasma. The activated partial thromboplastin time (APTT) is measured by incubation of 0.05 ml test plasma with 0.05 ml Actin reagent for 120 seconds followed by 0.05 ml CaCl2 (0.02 M). The prothrombin time (PT) is measured by adding 0.05 ml saline and 0.05 ml Thromboplastin-C reagent to 0.05 ml test plasma. […] Each of the particularly preferred examples of the invention listed above was determined to have a TT value of less than 100 ng/mL. […]

The test system of experiment [2] is human or animal plasma. Nature of the experiment: activated partial thromboplastin time (APTT) coagulation assay in plasma. The following applies: concentration required to double the clotting time, linear extrapolation; Actin reagent, CaCl2. As to the method:
as §1, §2

The test system of experiment [3] is human or animal plasma. Nature of the experiment: prothrombin time (PT) coagulation assay in plasma. Conditions: concentration required to double the clotting time, linear extrapolation; Thromboplastin-C reagent. How it is done:
as §1, §2

Broadly, the Kd is a measure of binding affinity in units of concentration.

Turning to `O=C(O)CN[C@H](CC1CCCCC1)C(=O)N1CCC[C@H]1C(=O)NC/C=C/c1c[nH]cn1` [Example 7, N-(carboxymethyl)-D-cyclohexylalanyl-N-[(E)-3-(imidazol-4-yl)prop-2-enyl]-L-prolinamide hydrochloride], on human thrombin, the Kd was 17.5 nM. In the experiment with human or animal plasma [1], the TT is listed as 30 ng/mL. The APTT in the experiment with human or animal plasma [2] is recorded as 280 ng/mL. The PT in the experiment on human or animal plasma [3] was 430 ng/mL.

As for `O=C(O)CN[C@H](CC1CCCCC1)C(=O)N1CCC[C@H]1C(=O)NCCCc1c[nH]cn1` [Example 8, N-(carboxymethyl)-D-cyclohexylalanyl-N-[3-(imidazol-4-yl)propyl]-L-prolinamide hydrochloride], the equilibrium dissociation constant (Kd) on human thrombin was 12.5 nM. Besides, the TT in the experiment with human or animal plasma [1] is listed as 20 ng/mL. Moreover, in the experiment on human or animal plasma [2], the APTT was 170 ng/mL. Besides, the PT in the experiment with human or animal plasma [3] was 380 ng/mL.
